According to US7531557B2, “Diaryl ethers as opioid receptor antagonists” (Eli Lilly and Company, priority 2002, dated 2009):
Structures can show the parent of a compound that is named as a salt. Each block holds one compound with its values, some of them ahead of it.

Tests used:
[1] = system: mu, delta and kappa receptors in rat striatum/nucleus accumbens; test: Ex-vivo receptor binding of 3H-diprenorphine in rat brain after oral dosing; details: 7 mg/kg p.o., 6 hours after administration, striatum/nucleus accumbens homogenate, versus vehicle
[2] = target: mu opioid receptor (MOR) (Homo sapiens, UniProt P35372); test: SPA-based GTP-γ-S binding assay, antagonist mode, mu; type: biochemical; details: antagonist assay against DAMGO 1 micromolar; Kb by Cheng-Prusoff equation; read-out: In Vitro Antagonism GTP-γ-S Kb Mu
Chain of mu opioid receptor (MOR) (P35372 whole entry): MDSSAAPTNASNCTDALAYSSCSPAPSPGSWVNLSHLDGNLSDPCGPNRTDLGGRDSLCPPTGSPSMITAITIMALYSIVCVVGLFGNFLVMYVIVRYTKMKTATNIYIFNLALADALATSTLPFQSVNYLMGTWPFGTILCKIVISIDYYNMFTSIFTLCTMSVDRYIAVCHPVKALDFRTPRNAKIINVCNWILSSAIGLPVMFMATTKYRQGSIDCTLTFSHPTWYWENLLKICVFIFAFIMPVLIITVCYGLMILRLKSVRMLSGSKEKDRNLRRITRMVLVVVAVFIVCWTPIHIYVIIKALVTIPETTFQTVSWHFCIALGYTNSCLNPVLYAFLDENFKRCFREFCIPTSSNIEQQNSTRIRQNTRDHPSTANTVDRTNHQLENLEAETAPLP
Procedure: (§1) An SPA—based GTP-γ-S assay format was developed based on previous opioid (Emmerson et al., J. Pharm Exp Ther 278, 1121, 1996; Horng et al., Society for Neuroscience Abstracts, 434.6, 2000) and muscarinic (DeLapp et al., JPET 289, 946, 1999) assay formats. Membranes were re-suspended in 20 mM HEPES, 100 mM NaCl, 5 mM MgCl2, 1 mM DTT, and 1 mM EDTA. Fifty (50) […] of GTP-γ-[35S], compound, membrane suspension (20 microgram/well), and wheat germ agglutinin coated SPA beads (1 mg/well) were added to clear bottom 96 well assay plates. GDP ([…]) was added to the membrane solution prior to addition to the assay plates. Plates were sealed and incubated for four hours at room temperature then placed in a refrigerator overnight to allow the beads to settle. Signal stability at 4° C. was determined to be >60 hours. Plates were warmed to room temperature and counted in a Wallac Microbeta scintillation counter. For antagonist assays, specific agonists were added at the following concentrations: (MOR) DAMGO 1 micromolar, (DOR) DPDPE 30 nM, (KOR) U69593 300 nM. Kb's were determined by Cheng-Prusoff equation (see Cheng and Prusoff, Biochem. Pharmacol. 22, 3099, 1973).

[3] = target: kappa opioid receptor (KOR) (Homo sapiens, UniProt P41145); test: SPA-based GTP-γ-S binding assay, antagonist mode, kappa; type: biochemical; details: antagonist assay against U69593 300 nM; Kb by Cheng-Prusoff equation; read-out: In Vitro Antagonism GTP-γ-S Kb Kappa
Chain of kappa opioid receptor (KOR) (P41145 whole entry): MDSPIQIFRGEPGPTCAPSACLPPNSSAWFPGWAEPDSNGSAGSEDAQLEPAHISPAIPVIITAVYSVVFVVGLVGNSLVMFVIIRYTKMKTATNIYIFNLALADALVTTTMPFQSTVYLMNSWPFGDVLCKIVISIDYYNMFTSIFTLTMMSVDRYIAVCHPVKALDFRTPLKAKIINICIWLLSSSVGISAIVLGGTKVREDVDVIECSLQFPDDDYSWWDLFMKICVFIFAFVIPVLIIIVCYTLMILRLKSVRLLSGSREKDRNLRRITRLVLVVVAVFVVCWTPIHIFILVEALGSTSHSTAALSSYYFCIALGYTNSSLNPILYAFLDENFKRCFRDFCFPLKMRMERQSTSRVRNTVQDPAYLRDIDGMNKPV
Procedure: as §1

[4] = target: delta opioid receptor (DOR) (Homo sapiens, UniProt P41143); test: SPA-based GTP-γ-S binding assay, antagonist mode, delta; type: biochemical; details: antagonist assay against DPDPE 30 nM; Kb by Cheng-Prusoff equation; read-out: In Vitro Antagonism GTP-γ-S Kb Delta
Chain of delta opioid receptor (DOR) (P41143 whole entry): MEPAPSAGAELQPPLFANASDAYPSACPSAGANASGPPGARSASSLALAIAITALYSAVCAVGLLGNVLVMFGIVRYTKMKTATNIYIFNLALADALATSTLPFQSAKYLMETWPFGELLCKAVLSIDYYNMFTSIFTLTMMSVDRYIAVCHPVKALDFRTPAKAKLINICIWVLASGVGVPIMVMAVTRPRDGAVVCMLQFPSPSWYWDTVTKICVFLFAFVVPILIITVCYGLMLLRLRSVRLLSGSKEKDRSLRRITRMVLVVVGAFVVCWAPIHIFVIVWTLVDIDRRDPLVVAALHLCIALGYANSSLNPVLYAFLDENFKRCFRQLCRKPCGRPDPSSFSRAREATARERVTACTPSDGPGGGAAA
Procedure: as §1

[5] = system: Diet Induced Obese Rat; test: Indirect calorimetry assay (food consumption, energy balance); type: in vivo; details: for minimal effective dose: Rattus norvegicus, po, lowest dose with food consumption over 24 hours significantly different from vehicle, read-out: Inhibition of Feeding Diet Induced Obese Rat Minimum Effective Dose (MED); for Energy Balance Diet Induced Obese Rat: test dose 3 mg/kg, p.o., energy balance = caloric intake minus utilization
Procedure: Indirect Calorimetry Assay
Twenty-four-hour energy expenditure (EE) and respiratory quotient (RQ) were measured by indirect calorimetry using an open circuit calorimetry system (Oxymax, Columbus Instruments Int. Corp., USA). RQ is the ratio of the volume of CO2 produced (VCO2) to the volume of O2 consumed (VO2). EE was calculated as the product of calorific value of oxygen (CV) and VO2 per kilogram of body weight, where CV=3.815+1.232 (RQ). Total calories expended were calculated to determine daily fuel utilization. To calculate the proportion of protein, fat and carbohydrate that is used during that 24-hour period, we used Flatt's proposal (see, Flatt J P 1991 Assessment of daily and cumulative carbohydrate and fat balances in mice. J Nutr Biochem 2:193-202.) and formulae as well as other derived constants (see Elia M, Livesey G 1992 Energy expenditure and fuel selection in biological systems: the theory and practice of calculations based on indirect calorimetry and tracer methods. World Rev Nutr Diet 70:68-131.). Food consumption over the 24-hour period was also measured. […] Results obtained for a sample of compounds of the invention with the indirect calorimetry assay are shown below in Table 4.

- melting point: 152 to 153 °C
Compound: NC(=O)c1ccc(Oc2ccc(CNCC3CCCCC3)cc2F)nc1

Compound: NC(=O)c1ccc(Oc2ccc(CNCCc3ccc(F)cc3)cc2)cc1 [Example 294, 4-(4-{[2-(4-Fluoro-phenyl)-ethylamino]-methyl}-phenoxy)-benzamide]
- Ex Vivo Binding [3H]-Diprenorphine % Inhibition of at 6 hours 7 mg/kg of test compound [1]: 50%

- Kb [2]: 0.281 nM
- Kb [3]: 3.38 nM
- Kb [4]: 8.9 nM
Compound: Cc1ccccc1CNCCc1ccc(Oc2ccc(C(N)=O)cn2)c(Cl)c1 [Example 476, 6-{2-Chloro-4-[2-(2-methyl-benzylamino)-ethyl]-phenoxy}-nicotinamide]

Compound: CCCCCNCc1ccc(Oc2ccc(C(N)=O)nc2)c(F)c1 [Example 405, 5-(2-Fluoro-4-pentylaminomethylphenoxy)pyridine-2-carboxamide]
- Ex Vivo Binding [3H]-Diprenorphine % Inhibition of at 6 hours 7 mg/kg of test compound [1]: 55%

Compound: COc1cc(CNCCc2ccccc2F)ccc1Oc1ccc(C(N)=O)cn1 [Example 431, 6-(4-{[2-(2-fluorophenyl)ethylamino]methyl}-2-methoxyphenoxy)nicotinamide]
- Ex Vivo Binding [3H]-Diprenorphine % Inhibition of at 6 hours 7 mg/kg of test compound [1]: 54%

- melting point: 110 to 111 °C
Compound: CC(C)CCN(Cc1ccc(Oc2ccc(C(N)=O)cn2)c(F)c1)CC1CCCCC1 [Example 671, 6-[4-((3-Methyl-butyl), cyclohexylmethylaminomethyl)-2-fluorophenoxy]nicotinonamide]

Compound: Cc1cc(CNCCC(C)C)ccc1Oc1ccc(C(N)=O)cn1 [Example 227, 6-[2-Methyl-4-(3-methyl-butylamino-methyl)-phenoxy]nicotinamide]
- minimal effective dose [5]: 0.3 mg/kg
- Energy Balance Diet Induced Obese Rat [5]: -68 kcal/kg/day
- Ex Vivo Binding [3H]-Diprenorphine % Inhibition of at 6 hours 7 mg/kg of test compound [1]: 55%

Compound: CC(C)CCNCc1ccc(Oc2ccc(C(N)=O)cn2)c(Cl)c1 [Example 229, 6-[2-Chloro-4-(3-methyl-butylamino-methyl)-phenoxy]nicotinamide]
- Ex Vivo Binding [3H]-Diprenorphine % Inhibition of at 6 hours 7 mg/kg of test compound [1]: 77%

Compound: NC(=O)c1ccc(Oc2ccc(CNCCc3cccc(F)c3)cc2)nc1 [Example 256, 6-(4-{[2-(3-Fluoro-phenyl)-ethylamino]-methyl}-phenoxy)-nicotinamide]
- Kb [2]: 0.072 nM
- Kb [3]: 0.894 nM
- Ex Vivo Binding [3H]-Diprenorphine % Inhibition of at 6 hours 7 mg/kg of test compound [1]: 40%
- Kb [4]: 0.677 nM

Compound: CCCCCNCc1ccc(Oc2ccc(C(N)=O)cn2)c(OC)c1 [Example 420, 6-(2-Methoxy-4-pentylaminomethylphenoxy)nicotinamide]
- Ex Vivo Binding [3H]-Diprenorphine % Inhibition of at 6 hours 7 mg/kg of test compound [1]: 75%

Compound: NC(=O)c1ccc(Oc2ccc(CNCCC3CCCC3)cc2)nc1 [Example 309, 6-{4-[(2-Cyclopentyl-ethylamino)-methyl]-phenoxy}-nicotinamide]
- minimal effective dose [5]: ≤ 3 mg/kg
- Energy Balance Diet Induced Obese Rat [5]: -39 kcal/kg/day
- Ex Vivo Binding [3H]-Diprenorphine % Inhibition of at 6 hours 7 mg/kg of test compound [1]: >60%

Compound: NC(=O)c1ccc(Oc2ccc3c(c2)CCCN(CCc2ccccc2)C3)nc1 [Example 447, 6-(2-Phenethyl-2,3,4,5-tetrahydro-1H-benzo[c]azepin-7-yloxy)nicotinamide]
- Ex Vivo Binding [3H]-Diprenorphine % Inhibition of at 6 hours 7 mg/kg of test compound [1]: 62%

Compound: CC(C)(C)CCNCc1ccc(Oc2ccc(C(N)=O)cn2)cc1 [Example 263, 6-{4-[(3,3-Dimethyl-butylamino)-methyl]-phenoxy}-nicotinamide]
- minimal effective dose [5]: ≤ 3 mg/kg
- Energy Balance Diet Induced Obese Rat [5]: -56 kcal/kg/day
- Ex Vivo Binding [3H]-Diprenorphine % Inhibition of at 6 hours 7 mg/kg of test compound [1]: 62%

Compound: CC(C)CCNCc1ccc(Oc2ccc(C(N)=O)cn2)c(F)c1 [Example 228, 6-[2-Fluoro-4-(3-methyl-butylamino-methyl)-phenoxy]nicotinamide]
- minimal effective dose [5]: 0.3 mg/kg
- Energy Balance Diet Induced Obese Rat [5]: -81 kcal/kg/day
- Ex Vivo Binding [3H]-Diprenorphine % Inhibition of at 6 hours 7 mg/kg of test compound [1]: >65%

Compound: Cc1cc(CNCCC(C)C)ccc1Oc1ccc(C(N)=O)cc1F [Example 246, 3-Fluoro-4-{2-methyl-4-[(3-methyl-butylamino)-methyl]-phenoxy}-benzamide]
- Ex Vivo Binding [3H]-Diprenorphine % Inhibition of at 6 hours 7 mg/kg of test compound [1]: 58%

- Kb [2]: 0.2 nM
- Kb [3]: 0.4 nM
- Kb [4]: 4.4 nM
Compound: CC(C)CCNCc1ccc(Oc2ccc(C(N)=O)cn2)cc1 [Example 271, 6-{4-[(3-Methyl-butylamino)-methyl]-phenoxy}-nicotinamide]
- minimal effective dose [5]: 0.3 mg/kg
- Energy Balance Diet Induced Obese Rat [5]: -35 kcal/kg/day
- Ex Vivo Binding [3H]-Diprenorphine % Inhibition of at 6 hours 7 mg/kg of test compound [1]: >40%

Compound: COc1cc(CNCCC(C)(C)C)ccc1Oc1ccc(C(N)=O)cn1.CS(=O)(=O)O [Example 446, 6-{4-[(3,3-Dimethylbutylamino)methyl]-2-methoxyphenoxy}nicotinamide methanesulfonate]
- Ex Vivo Binding [3H]-Diprenorphine % Inhibition of at 6 hours 7 mg/kg of test compound [1]: 55%

- Kb [2]: 0.41 nM
- Kb [3]: 4.5 nM
- Kb [4]: 5.78 nM
Compound: NC(=O)c1ccc(Oc2ccc(CCNCc3cccc(F)c3)cc2Cl)nc1 [Example 478, 6-{2-Chloro-4-[2-(3-fluoro-benzylamino)-ethyl]-phenoxy}-nicotinamide]

Compound: NC(=O)c1ccc(Oc2ccc(CNCCC3CCCCC3)cc2)nc1 [Example 272, 6-{4-[(2-Cyclohexyl-ethylamino)-methyl]-phenoxy}-nicotinamide]
- Ex Vivo Binding [3H]-Diprenorphine % Inhibition of at 6 hours 7 mg/kg of test compound [1]: 79%

- Kb [2]: 0.068 nM
- Kb [3]: 0.355 nM
- Kb [4]: 0.708 nM
Compound: NC(=O)c1ccc(Oc2ccc(CNCCc3cccs3)cc2)nc1 [Example 253, 6-{4-[(2-Thiophen-2-yl-ethylamino)-methyl]-phenoxy}-nicotinamide]
- minimal effective dose [5]: ≤ 3 mg/kg
- Energy Balance Diet Induced Obese Rat [5]: -19 kcal/kg/day
- Ex Vivo Binding [3H]-Diprenorphine % Inhibition of at 6 hours 7 mg/kg of test compound [1]: >40%

- Kb [2]: 0.843 nM
- Kb [3]: 7.86 nM
- Kb [4]: 17.5 nM
Compound: NC(=O)c1ccc(Oc2ccc(CCNCc3ccccc3)cc2Cl)nc1 [Example 475, 6-[4-(2-Benzylamino-ethyl)-2-chloro-phenoxy]-nicotinamide]

Compound: CCCCNCc1ccc(Oc2ccc(C(N)=O)cn2)c(C)c1 [Example 240, 6-(4-Butylaminomethyl-2-methyl-phenoxy)-nicotinamide]
- Ex Vivo Binding [3H]-Diprenorphine % Inhibition of at 6 hours 7 mg/kg of test compound [1]: 38%

- melting point: 128 to 129 °C
Compound: NC(=O)c1ccc(Oc2ccc(CNCC3CC3)cc2F)nc1 [Example 673, 6-[4-(Cyclopropylmethylaminomethyl)-2-fluorophenoxy]nicotinonamide]

Compound: Cc1cc(CNCCC(C)(C)C)ccc1Oc1ccc(C(N)=O)cn1 [Example 238, 6-{4-[(3,3-Dimethyl-butylamino)-methyl]-2-methyl-phenoxy}-nicotinamide]
- Ex Vivo Binding [3H]-Diprenorphine % Inhibition of at 6 hours 7 mg/kg of test compound [1]: 59%

- Kb [2]: 0.503 nM
- Kb [3]: 6.86 nM
- Kb [4]: 30.1 nM
Compound: NC(=O)c1ccc(Oc2ccc(CCNCc3cccc(Cl)c3)cc2Cl)nc1 [Example 479, 6-{2-Chloro-4-[2-(3-chloro-benzylamino)-ethyl]-phenoxy}-nicotinamide]

Compound: O=C1CC[C@@]2(O)[C@H]3Cc4ccc(O)c5c4[C@@]2(CCN3CC2CC2)[C@H]1O5 [Naltrexone ®, Naltrexone HCl, reference compound]
- minimal effective dose [5]: > 10 mg/kg
- Energy Balance Diet Induced Obese Rat [5]: Not significant
- Ex Vivo Binding [3H]-Diprenorphine % Inhibition of at 6 hours 7 mg/kg of test compound [1]: <40%

Compound: CC(C)(C)CCNCc1ccc(Oc2ccc(C(N)=O)cn2)c(Cl)c1 [Example 481, 6-{2-Chloro-4-[(3,3-dimethylbutylamino)-methyl]-phenoxy}-nicotinamide]
- Ex Vivo Binding [3H]-Diprenorphine % Inhibition of at 6 hours 7 mg/kg of test compound [1]: 83%
